Measured values published in patent publication US20170198006A1, “PRMT5 INHIBITORS AND USES THEREOF” (Epizyme, Inc., priority 2014, published 2017).

Experiments:
[1] = test system: symmetric di-methyl arginine in Z-138 cells; assay: Z-138 Methylation Assay (In Cell Western for symmetric di-methyl arginine and DNA content); format: cell-based; conditions: Homo sapiens, read-out: ICW EC50
Text: Z-138 suspension cells were purchased from ATCC (American Type Culture Collection, Manassas, Va.). RPMI/Glutamax medium, penicillin-streptomycin, heat inactivated fetal bovine serum, and D-PBS were purchased from Life Technologies, Grand Island, N.Y., USA. Odyssey blocking buffer, 800CW goat anti-rabbit IgG (H+L) antibody, and Licor Odyssey infrared scanner were purchased from Licor Biosciences, Lincoln, Nebr., USA. Symmetric di-methyl arginine antibody was purchased from EMD Millipore, Billerica, Mass., USA. 16% Paraformaldehyde was purchased from Electron Microscopy Sciences, Hatfield, Pa., USA.
Z-138 suspension cells were maintained in growth medium (RPMI 1640 supplemented with 10% v/v heat inactivated fetal bovine serum and 100 units/mL penicillin-streptomycin) and cultured at 37° C. under 5% CO2.
Cell Treatment, in Cell Western (ICW) for Detection of Symmetric Di-Methyl Arginine and DNA Content.
Z-138 cells were seeded in assay medium at a concentration of 50,000 cells per mL to a 384-well cell culture plate with 50 μL per well. Compound (100 nL) from 384 well source plates was added directly to 384 well cell plate. Plates were incubated at 37° C., 5% CO2 for 96 hours. After four days of incubation, 40 μL of cells from incubated plates were added to poly-D-lysine coated 384 well culture plates (BD Biosciences 356697). Plates were incubated at room temperature for 30 minutes then incubated at 37° C., 5% CO2 for 5 hours. After the incubation, 40 μL per well of 8% paraformaldehyde in PBS (16% paraformaldahyde was diluted to 8% in PBS) was added to each plate and incubated for 30 minutes. Plates were transferred to a Biotek 405 plate washer and washed 5 times with 100 μL per well of wash buffer (1×PBS with 0.1% Triton X-100 (v/v)). Next 30 μL per well of Odyssey blocking buffer were added to each plate and incubated 1 hour at room temperature. Blocking buffer was removed and 20 μL per well of primary antibody was added (symmetric di-methyl arginine diluted 1:100 in Odyssey buffer with 0.1% Tween 20 (v/v)) and plates were incubated overnight (16 hours) at 4° C. Plates were washed 5 times with 100 μL per well of wash buffer. Next 20 μL per well of secondary antibody was added (1:200 800CW goat anti-rabbit IgG (H+L) antibody, 1:1000 DRAQ5 (Biostatus limited) in Odyssey buffer with 0.1% Tween 20 (v/v)) and incubated for 1 hour at room temperature. The plates were washed 5 times with 100 μL per well wash buffer then 1 time with 100 μL per well of water. Plates were allowed to dry at room temperature then imaged on the Licor Odyssey machine which measures integrated intensity at 700 nm and 800 nm wavelengths. Both 700 and 800 channels were scanned.
First, the ratio for each well was determined by:
Each plate included fourteen control wells of DMSO only treatment (minimum inhibition) as well as fourteen control wells for maximum inhibition treated with 3 μM of a reference compound (Background wells). The average of the ratio values for each control type was calculated and used to determine the percent inhibition for each test well in the plate. Reference compound was serially diluted three-fold in DMSO for a total of nine test concentrations, beginning at 3 μM. Percent inhibition was determined and IC50 curves were generated using triplicate wells per concentration of compound.

Z-138 cells = assay: Z-138 Proliferation Assay (Cell Titer Glo, 5 days); format: cell-based; conditions: Homo sapiens, 120 h
Text: Z-138 Proliferation Assay
Z-138 suspension cells were purchased from ATCC (American Type Culture Collection, Manassas, Va.). RPMI/Glutamax medium, penicillin-streptomycin, heat inactivated fetal bovine serum were purchased from Life Technologies, Grand Island, N.Y., USA. V-bottom polypropylene 384-well plates were purchased from Greiner Bio-One, Monroe, N.C., USA. Cell culture 384-well white opaque plates were purchased from Perkin Elmer, Waltham, Mass., USA. Cell-Titer Glo® was purchased from Promega Corporation, Madison, Wis., USA. SpectraMax M5 plate reader was purchased from Molecular Devices LLC, Sunnyvale, Calif., USA.
Z-138 suspension cells were maintained in growth medium (RPMI 1640 supplemented with 10% v/v heat inactivated fetal bovine serum and cultured at 37° C. under 5% CO2. Under assay conditions, cells were incubated in assay medium (RPMI 1640 supplemented with 10% v/v heat inactivated fetal bovine serum and 100 units/mL penicillin-streptomycin) at 37° C. under 5% CO2.
For the assessment of the effect of compounds on the proliferation of the Z-138 cell line, exponentially growing cells were plated in 384-well white opaque plates at a density of 10,000 cells/ml in a final volume of 50 μl of assay medium. A compound source plate was prepared by performing triplicate nine-point 3-fold serial dilutions in DMSO, beginning at 10 mM (final top concentration of compound in the assay was 20 μM and the DMSO was 0.2%). A 100 nL aliquot from the compound stock plate was added to its respective well in the cell plate. […] After addition of compounds, assay plates were incubated for 5 days at 37° C., 5% CO2, relative humidity >90%.
Cell viability was measured by quantitation of ATP present in the cell cultures, adding 35 μl of Cell Titer Glo® reagent to the cell plates. Luminescence was read in the SpectraMax M5 microplate reader. The concentration of compound inhibiting cell viability by 50% was determined using a 4-parametric fit of the normalized dose response curves.

PRMT5/MEP50 = molecular target: T1, PRMT5/MEP50 (Homo sapiens, UniProt O14744); assay: PRMT5 Biochemical Assay (PRMT5/MEP50 enzyme assay on histone H4 peptide substrate, 3H-SAM Flashplate); conditions: PRMT5 biochemical assay; read-out: Biochemical IC50
T1 construct: Flag-PRMT5; made in house; host or cells: Spodoptera frugiperda (SF9), baculovirus
T1 sequence (O14744 with tags, fused parts or gaps): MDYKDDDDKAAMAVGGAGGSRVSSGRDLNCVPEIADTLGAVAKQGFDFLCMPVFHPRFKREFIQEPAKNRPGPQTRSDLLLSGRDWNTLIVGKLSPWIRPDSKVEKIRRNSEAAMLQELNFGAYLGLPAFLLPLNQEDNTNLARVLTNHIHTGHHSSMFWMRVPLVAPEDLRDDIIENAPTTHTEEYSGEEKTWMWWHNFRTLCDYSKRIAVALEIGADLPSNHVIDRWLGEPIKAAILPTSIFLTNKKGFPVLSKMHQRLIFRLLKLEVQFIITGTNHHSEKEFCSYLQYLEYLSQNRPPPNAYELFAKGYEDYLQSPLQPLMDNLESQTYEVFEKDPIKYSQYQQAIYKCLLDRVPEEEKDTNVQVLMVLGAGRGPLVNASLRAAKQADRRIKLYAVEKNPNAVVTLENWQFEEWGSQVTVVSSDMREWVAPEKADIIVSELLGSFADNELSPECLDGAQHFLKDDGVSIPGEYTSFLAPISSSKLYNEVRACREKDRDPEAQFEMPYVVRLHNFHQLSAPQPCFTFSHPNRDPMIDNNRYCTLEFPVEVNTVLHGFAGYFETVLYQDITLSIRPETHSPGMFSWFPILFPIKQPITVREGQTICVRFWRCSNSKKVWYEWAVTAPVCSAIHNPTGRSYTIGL
T1 sequence (Q9BQA1 with tags, fused parts or gaps partner limits assumed): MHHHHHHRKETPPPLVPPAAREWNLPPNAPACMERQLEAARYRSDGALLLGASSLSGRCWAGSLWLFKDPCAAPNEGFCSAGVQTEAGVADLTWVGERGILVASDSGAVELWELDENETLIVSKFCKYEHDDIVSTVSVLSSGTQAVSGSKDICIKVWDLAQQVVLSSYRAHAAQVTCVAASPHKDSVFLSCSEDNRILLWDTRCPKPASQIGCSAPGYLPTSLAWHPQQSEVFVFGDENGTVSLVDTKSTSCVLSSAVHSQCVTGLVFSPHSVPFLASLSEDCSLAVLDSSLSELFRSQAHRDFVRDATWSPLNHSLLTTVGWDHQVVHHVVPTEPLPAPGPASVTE
How it was run: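 Sf9-expressed Flag-PRMT5/6His-MEP50 preincubated with compound 30 min at 25 °C, then methylation of biotinylated H4 1-15 peptide started with ³H-SAM in 20 mM Bicine pH 7.6, 1 mM TCEP, 0.005% BSG, 0.002% Tween20.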

EC50 [1] [nM] | IC50 (PRMT5/MEP50) [nM] | SMILES | EC50 (Z-138 cells) [nM]
101 to 1000 | 101 to 1000 | O=C(NC[C@@H](O)CN1CCc2ccccc2C1)c1cccc(NC2CCOCC2)c1 [Compound 24-9] | > 5000
< 100 | < 100 | CN(C)c1cccc2c(S(=O)(=O)N[C@H]3CC(=O)N(c4ccccc4)C3)cccc12 [Compound 3-4, (S)-5-(dimethylamino)-N-(5-oxo-1-phenylpyrrolidin-3-yl)naphthalene-1-sulfonamide] | 1000 to 10000
< 100 | < 100 | CC(=O)N1CCC(Nc2cc(C(=O)NC(C)C(O)CN3CCc4ccccc4C3)ccn2)CC1 (stereo not drawn) [Compound 11-9] | 101 to 1000
101 to 1000 | 101 to 1000 | O=C(NC[C@H](O)CN1Cc2ccccc2C1)c1cc(NC2COC2)ncn1 [Compound 3-11] | 10000 to 50000
101 to 1000 | < 100 | CC(=O)N1CCC(Nc2cc(C(=O)N(C)C[C@H](O)CN3CCc4ccccc4C3)ncn2)CC1 [Compound 9-9] | 101 to 1000
< 100 | < 100 | O=C(NC[C@H](O)CN1CCc2ccccc2C1)c1cc(NC2CN(C(=O)C3CCC3)C2)ncn1 [Compound 14-9] | < 100
> 1000 | 10000 to 50000 | NCc1nccn1Cc1cccc(Br)c1 [Compound 6-13] | > 5000
101 to 1000 | < 100 | Cn1cnc2ccc(-c3cccc(OCC(O)CN4CCc5ccccc5C4)c3)cc21 (stereo not drawn) [Compound 23-9] | > 1000
101 to 1000 | 101 to 1000 | O=C(NC[C@H](O)CN1Cc2ccccc2C1)c1cncc(NC2CCOCC2)c1 [Compound 7-11] | 1000 to 10000
101 to 1000 | < 100 | CN(C)c1cccc2c(S(=O)(=O)NCCC(N)c3ccccc3)cccc12 (stereo not drawn) [Compound 3-7] | 10000 to 50000
1000 to 10000 | 101 to 1000 | CN(C)c1cccc2c(S(=O)(=O)NC3CC(=O)N(c4ccccc4Cl)C3)cccc12 (stereo not drawn) [Compound 8-4] | 10000 to 50000
101 to 1000 | 101 to 1000 | O=C(NC[C@H](O)CN1Cc2ccccc2C1)c1cncc(NC2CCN(CC(F)(F)F)C2)c1 (stereo partly drawn) [Compound 9-11] | > 20000
< 100 | < 100 | CC(C)(C)C(=O)N1CCN(c2nc(NC3COC3)cc(C(=O)NC[C@H](O)CN3CCc4ccccc4C3)n2)CC1 [Compound 4-9] | < 100
< 100 | < 100 | CC(=O)N1CCC(Nc2cc(C(=O)NCC(C)(O)CN3CCc4ccccc4C3)ccn2)CC1 (stereo not drawn) [Compound 12-9] | 1000 to 10000
101 to 1000 | < 100 | CN(C)c1cccc2c(S(=O)(=O)NC3CN(Cc4ccccc4)C3)cccc12 [Compound 3-5, N-(1-benzylazetidin-3-yl)-5-(dimethylamino)naphthalene-1-sulfonamide] | 10000 to 50000
1000 to 10000 | 101 to 1000 | CN(C)c1cccc2c(S(=O)(=O)NCC3CCN(Cc4ccco4)CC3)cccc12 [Compound 3-3] | 10000 to 50000
> 20000 | 101 to 1000 | O=C(CC1NC(N2CCc3ccccc3C2)=NC1=O)Nc1ccc(Oc2ccccc2)cc1 (stereo not drawn) [Compound 12-14] | > 20000
< 100 | 101 to 1000 | CC(=O)N1CC(Nc2cc(C(=O)N(C)C[C@H](O)CN3CCc4ccccc4C3)ncn2)C1 [Compound 8-9] | 1000 to 10000
> 1000 | 101 to 1000 | Cc1cn(Cc2ccccc2)c(CN)n1 [Compound 3-13] | > 5000
> 20000 | 101 to 1000 | O=C(CC1NC(N2CCN(Cc3ccccc3)CC2)=NC1=O)Nc1ccc(Cl)cc1 (stereo not drawn) [Compound 22-14] | > 20000
1000 to 10000 | < 100 | CN(C)c1cccc2c(S(=O)(=O)NC3CCN(Cc4ccccc4)CC3)cccc12 [Compound 14-3] | > 20000
101 to 1000 | < 100 | CN(C)c1cccc2c(S(=O)(=O)NC3CC(=O)N(c4ccccc4F)C3)cccc12 (stereo not drawn) [Compound 5-4] | 1000 to 10000

More lines, now with the values behind:

SMILES | EC50 [1] [nM] | IC50 (PRMT5/MEP50) [nM] | EC50 (Z-138 cells) [nM]
CN1CCC(NC2=NN(C)CC(C(=O)NC[C@H](O)CN3CCc4ccccc4C3)C2)C1 (stereo partly drawn) [1-12] | 101 to 1000 | < 100 | > 5000
O=C(CC1NC(N2CCN(c3ccccc3)CC2)=NC1=O)Nc1ccc(Cl)cc1 (stereo not drawn) [Compound 1-6] | 101 to 1000 | 101 to 1000 | > 20000
Cc1cccc(Cn2ccnc2CN)c1 [Compound 1-13] | > 1000 | 1000 to 10000 | > 5000
CN(C)c1cccc2c(S(=O)(=O)NCCC(N)Cc3ccccc3)cccc12 (stereo not drawn) [Compound 2-7, N-(3-amino-4-phenylbutyl)-5-(dimethylamino)naphthalene-1-sulfonamide] | 101 to 1000 | < 100 | 1000 to 10000
OC(COc1cccc(-c2ccc3ncsc3c2)c1)CN1CCc2ccccc2C1 (stereo not drawn) [Compound 1-9] | 1000 to 10000 | 101 to 1000 | 10000 to 50000
Cc1ccc(C(=O)CC2NC(N3CCN(c4ccccc4)CC3)=NC2=O)cc1 (stereo not drawn) [Compound 1-14] | 1000 to 10000 | 101 to 1000 | > 20000
CN(C)c1cccc2c(S(=O)(=O)NC3CCN(Cc4ccccc4)C3)cccc12 (stereo not drawn) [Compound 1-5] | 1000 to 10000 | 101 to 1000 | > 20000
CS(=O)(=O)N1CCC(Nc2cncc(C(=O)NC[C@H](O)CN3Cc4ccccc4C3)c2)CC1 [Compound 2-11] | 101 to 1000 | < 100 | 10000 to 50000
O=C1CC(NS(=O)(=O)c2cccc3ccccc23)CN1c1ccccc1 (stereo not drawn) [Compound 2-4] | 101 to 1000 | 101 to 1000 | 10000 to 50000
CN(C)c1cccc2c(S(=O)(=O)N[C@H]3CCN(Cc4ccccc4)C3)cccc12 [Compound 2-5, (S)—N-(1-benzylpyrrolidin-3-yl)-5-(dimethylamino)naphthalene-1-sulfonamide] | 101 to 1000 | < 100 | > 20000
CN(C)c1cccc2c(S(=O)(=O)NC3CC(=O)N(c4ccccc4)C3)cccc12 (stereo not drawn) [Compound 1-4] | 101 to 1000 | 101 to 1000 | 1000 to 10000
